Measured values taken from PMC5218480 (PLoS ONE, 2017).

System: MV-4-11 cells
Assay: Gene expression microarray analysis (Affymetrix PrimeView) and GSEA
Type: cell-based, human
Design: RFU PODN (11730768_x_at) / Fold change /veh PODN (11730768_x_at) / RFU LINC00158 (11744669_a_at) / Fold change /veh LINC00158 (11744669_a_at) / RFU DUSP10 (11751237_a_at) / Fold change /veh DUSP10 (11751237_a_at) / RFU ID3 (11757404_x_at) / Fold change /veh ID3 (11757404_x_at) / RFU PLEKHG5 (11737974_s_at) / Fold change /veh PLEKHG5 (11737974_s_at) / RFU LRRC4B (11730491_at) / Fold change /veh LRRC4B (11730491_at) / RFU GIMAP4 (11747438_a_at) / Fold change /veh GIMAP4 (11747438_a_at) / RFU KRT8 (11758183_x_at) / Fold change /veh KRT8 (11758183_x_at) / RFU CNN1 (11734310_a_at) / Fold change /veh CNN1 (11734310_a_at) / RFU VPS37D (11726825_at) / Fold change /veh VPS37D (11726825_at) / RFU C10orf10 (11716522_x_at) / Fold change /veh C10orf10 (11716522_x_at) / RFU KIR2DL2 /// KIR2DL4 /// KIR2DL5A /// KIR2DL5B /// KIR2DS1 /// KIR2DS2 /// KIR2DS3 /// KIR2DS4 /// KIR3DL3 /// KIR3DL3 /// KIR3DS1 (11738374_at) / Fold change /veh KIR2DL2 /// KIR2DL4 /// KIR2DL5A /// KIR2DL5B /// KIR2DS1 /// KIR2DS2 /// KIR2DS3 /// KIR2DS4 /// KIR3DL3 /// KIR3DL3 /// KIR3DS1 (11738374_at) / RFU C1QL1 (11718748_at) / Fold change /veh C1QL1 (11718748_at) / RFU TMPRSS4 (11747572_a_at) / Fold change /veh TMPRSS4 (11747572_a_at) / RFU HAMP (11756126_x_at) / Fold change /veh HAMP (11756126_x_at) / RFU RNFT2 (11725882_a_at) / Fold change /veh RNFT2 (11725882_a_at) / RFU NR4A2 (11747474_a_at) / Fold change /veh NR4A2 (11747474_a_at) / RFU ABCC12 (11746883_a_at) / Fold change /veh ABCC12 (11746883_a_at) / RFU TMEM136 (11760407_x_at) / Fold change /veh TMEM136 (11760407_x_at) / RFU CLDN22 /// WWC2 (11732394_at) / Fold change /veh CLDN22 /// WWC2 (11732394_at) / RFU HLA-DPB1 (11760878_x_at) / Fold change /veh HLA-DPB1 (11760878_x_at) / RFU SPINT1 (11716480_a_at) / Fold change /veh SPINT1 (11716480_a_at) / RFU GAP43 (11754022_s_at) / Fold change /veh GAP43 (11754022_s_at) / RFU A4GNT (11735810_at) / Fold change /veh A4GNT (11735810_at) / RFU PRB3 (11715151_x_at) / Fold change /veh PRB3 (11715151_x_at) / RFU TUBB4B (11761932_at) / Fold change /veh TUBB4B (11761932_at) / RFU CAPN14 (11732068_a_at) / Fold change /veh CAPN14 (11732068_a_at) / RFU TMCC2 (11721928_a_at) / Fold change /veh TMCC2 (11721928_a_at) / RFU IRGQ (11745062_a_at) / Fold change /veh IRGQ (11745062_a_at) / RFU FAM174B (11720279_a_at) / Fold change /veh FAM174B (11720279_a_at) / RFU TMPRSS4 (11748680_a_at) / Fold change /veh TMPRSS4 (11748680_a_at) / RFU FAM212B (11763350_a_at) / Fold change /veh FAM212B (11763350_a_at) / RFU PLEKHG5 (11743358_a_at) / Fold change /veh PLEKHG5 (11743358_a_at) / RFU ZSCAN30 (11745921_a_at) / Fold change /veh ZSCAN30 (11745921_a_at) / RFU CMKLR1 (11741424_a_at) / Fold change /veh CMKLR1 (11741424_a_at) / RFU LOC101060620 /// MAPK8IP1 (11723275_at) / Fold change /veh LOC101060620 /// MAPK8IP1 (11723275_at) / RFU SPTSSB (11747773_x_at) / Fold change /veh SPTSSB (11747773_x_at) / RFU PRSS12 (11739890_at) / Fold change /veh PRSS12 (11739890_at) / RFU BIN1 (11741810_x_at) / Fold change /veh BIN1 (11741810_x_at) / RFU WNT11 (11732464_a_at) / Fold change /veh WNT11 (11732464_a_at) / RFU C10orf10 (11716521_a_at) / Fold change /veh C10orf10 (11716521_a_at) / RFU C5orf56 (11738089_at) / Fold change /veh C5orf56 (11738089_at) / RFU CYB561 (11721691_x_at) / Fold change /veh CYB561 (11721691_x_at) / RFU ANKRD19P (11752326_a_at) / Fold change /veh ANKRD19P (11752326_a_at) / RFU OR2T12 /// OR2T33 /// OR2T8 (11738714_s_at) / Fold change /veh OR2T12 /// OR2T33 /// OR2T8 (11738714_s_at) / RFU VCAN (11748164_a_at) / Fold change /veh VCAN (11748164_a_at) / RFU JSRP1 (11732532_at) / Fold change /veh JSRP1 (11732532_at) / RFU KRTAP10-11 (11738290_x_at) / Fold change /veh KRTAP10-11 (11738290_x_at) / RFU MYO3A (11730013_a_at) / Fold change /veh MYO3A (11730013_a_at) / RFU EBF3 (11725865_a_at) / Fold change /veh EBF3 (11725865_a_at) / RFU CAMK2N1 (11719241_x_at) / Fold change /veh CAMK2N1 (11719241_x_at) / RFU C5orf56 (11738088_a_at) / Fold change /veh C5orf56 (11738088_a_at) / RFU OLFML3 (11715873_a_at) / Fold change /veh OLFML3 (11715873_a_at) / RFU LOC100653217 /// NTM (11731650_a_at) / Fold change /veh LOC100653217 /// NTM (11731650_a_at) / RFU MAPK11 (11762145_a_at) / Fold change /veh MAPK11 (11762145_a_at) / RFU FIZ1 (11724087_x_at) / Fold change /veh FIZ1 (11724087_x_at) / RFU OASL (11726364_x_at) / Fold change /veh OASL (11726364_x_at) / RFU SOX15 (11748057_x_at) / Fold change /veh SOX15 (11748057_x_at) / RFU CD79A (11719716_a_at) / Fold change /veh CD79A (11719716_a_at) / RFU HIST1H1D (11736915_at) / Fold change /veh HIST1H1D (11736915_at) / RFU CASKIN2 (11723855_a_at) / Fold change /veh CASKIN2 (11723855_a_at) / RFU LOC730098 (11760151_x_at) / Fold change /veh LOC730098 (11760151_x_at) / RFU OR4N2 (11742367_at) / Fold change /veh OR4N2 (11742367_at) / RFU PRRT2 (11749266_a_at) / Fold change /veh PRRT2 (11749266_a_at) / RFU SNX32 (11753110_a_at) / Fold change /veh SNX32 (11753110_a_at) / RFU CDHR5 (11726645_a_at) / Fold change /veh CDHR5 (11726645_a_at) / RFU RCAN1 (11760418_a_at) / Fold change /veh RCAN1 (11760418_a_at) / RFU FAM167A (11723789_a_at) / Fold change /veh FAM167A (11723789_a_at) / RFU FAM26E (11764081_at) / Fold change /veh FAM26E (11764081_at) / RFU ISYNA1 (11749810_s_at) / Fold change /veh ISYNA1 (11749810_s_at) / RFU ACY1 (11761880_at) / Fold change /veh ACY1 (11761880_at) / RFU 11764098_at / Fold change /veh 11764098_at / RFU SAMD14 (11745864_x_at) / Fold change /veh SAMD14 (11745864_x_at) / RFU NPB (11741838_a_at) / Fold change /veh NPB (11741838_a_at) / RFU TMPRSS6 (11731388_a_at) / Fold change /veh TMPRSS6 (11731388_a_at) / RFU KRTAP10-2 (11738614_at) / Fold change /veh KRTAP10-2 (11738614_at) / RFU ARHGAP8 /// PRR5-ARHGAP8 (11727945_x_at) / Fold change /veh ARHGAP8 /// PRR5-ARHGAP8 (11727945_x_at) / RFU KRTAP5-7 /// NADSYN1 (11734609_at) / Fold change /veh KRTAP5-7 /// NADSYN1 (11734609_at) / RFU RASL12 (11751679_a_at) / Fold change /veh RASL12 (11751679_a_at) / RFU CDKN2B (11736163_a_at) / Fold change /veh CDKN2B (11736163_a_at) / RFU PRF1 (11729649_at) / Fold change /veh PRF1 (11729649_at) / RFU, ZNF638 /// ZNF638-IT1 / Fold change vs veh, ZNF638 /// ZNF638-IT1 / RFU, PANK3 / Fold change vs veh, PANK3 / RFU, SH3YL1 / Fold change vs veh, SH3YL1 / RFU, ZEB2 / Fold change vs veh, ZEB2 / RFU, NRIP1 / Fold change vs veh, NRIP1 / RFU, PTTG1IP / Fold change vs veh, PTTG1IP / RFU, CAPN2 / Fold change vs veh, CAPN2 / RFU, MED14 / Fold change vs veh, MED14 / RFU, SNORA58 / Fold change vs veh, SNORA58 / RFU, C1orf63 / Fold change vs veh, C1orf63 / RFU, LRRFIP1 / Fold change vs veh, LRRFIP1 / RFU, NDUFAF7 / Fold change vs veh, NDUFAF7 / RFU, SLC12A2 / Fold change vs veh, SLC12A2 / RFU, IBTK / Fold change vs veh, IBTK / RFU, ESF1 / Fold change vs veh, ESF1 / Fold change vs veh, TMEM50B / RFU, TAOK1 / Fold change vs veh, TAOK1 / RFU, ACBD3 / Fold change vs veh, ACBD3 / RFU, TMA16 / Fold change vs veh, TMA16 / RFU, RWDD3 / Fold change vs veh, RWDD3 / RFU, BCAT1 / Fold change vs veh, BCAT1 / RFU, EDEM3 / Fold change vs veh, EDEM3 / RFU, TMEM33 / Fold change vs veh, TMEM33 / RFU, WDR75 / Fold change vs veh, WDR75 / RFU, AHCTF1 / Fold change vs veh, AHCTF1 / RFU, TFRC / Fold change vs veh, TFRC / RFU, ZDHHC17 / Fold change vs veh, ZDHHC17 / RFU, NOM1 / Fold change vs veh, NOM1 / RFU, ARL8B / Fold change vs veh, ARL8B / RFU, ZBTB11 / Fold change vs veh, ZBTB11 / RFU, TAMM41 / Fold change vs veh, TAMM41 / RFU, KIAA1704 /// LOC100996395 / Fold change vs veh, KIAA1704 /// LOC100996395 / RFU, ING1 / Fold change vs veh, ING1 / RFU, TRMT61B / Fold change vs veh, TRMT61B / RFU, FUBP3 / Fold change vs veh, FUBP3 / RFU, TP53 / Fold change vs veh, TP53 / RFU, TNKS2 / Fold change vs veh, TNKS2 / RFU, ZFP14 / Fold change vs veh, ZFP14 / RFU, ACTR2 / Fold change vs veh, ACTR2 / RFU, PPP3R1 / Fold change vs veh, PPP3R1 / RFU, PIK3R1 / Fold change vs veh, PIK3R1 / RFU, HNRNPA1 / Fold change vs veh, HNRNPA1 / RFU, RNF170 / Fold change vs veh, RNF170 / RFU, ZNF28 / Fold change vs veh, ZNF28 / RFU, RNGTT / Fold change vs veh, RNGTT / RFU, OGT / Fold change vs veh, OGT / RFU, BRD1 / Fold change vs veh, BRD1 / RFU, MARS / Fold change vs veh, MARS / RFU, ZNF655 / Fold change vs veh, ZNF655 / RFU, FAHD1 / Fold change vs veh, FAHD1 / RFU, BDP1 / Fold change vs veh, BDP1 / RFU, LRRCC1 / Fold change vs veh, LRRCC1 / RFU, ARID1A / Fold change vs veh, ARID1A / RFU, ZNF146 / Fold change vs veh, ZNF146 / RFU, ZNF330 / Fold change vs veh, ZNF330 / RFU, GPN3 / Fold change vs veh, GPN3 / RFU, C9orf123 / Fold change vs veh, C9orf123 / RFU, N4BP2L2 / Fold change vs veh, N4BP2L2 / RFU, ARFIP1 / Fold change vs veh, ARFIP1 / RFU, FAM179B / Fold change vs veh, FAM179B / RFU, BCL10 / Fold change vs veh, BCL10 / RFU, UHRF1BP1L / Fold change vs veh, UHRF1BP1L / RFU, BET1 / Fold change vs veh, BET1 / RFU, CNOT2 / Fold change vs veh, CNOT2 / RFU, ZNF268 / Fold change vs veh, ZNF268 / Fold change vs veh, ZNF507 / RFU, DGCR2 / Fold change vs veh, DGCR2 / RFU, WDSUB1 / Fold change vs veh, WDSUB1 / Fold change vs veh, HSP90B1 /// MIR3652 / RFU, ADSS / Fold change vs veh, ADSS / RFU, GK / Fold change vs veh, GK / RFU, ZNF148 / Fold change vs veh, ZNF148 / RFU, TAF9 / Fold change vs veh, TAF9 / RFU, SLC1A5 / Fold change vs veh, SLC1A5 / RFU, SLMO2 / Fold change vs veh, SLMO2 / RFU, ABCC4 / Fold change vs veh, ABCC4 / RFU, LOC101060439 /// RAP1B / Fold change vs veh, LOC101060439 /// RAP1B / RFU, RFX7 / Fold change vs veh, RFX7 / RFU, GTPBP10 / Fold change vs veh, GTPBP10 / RFU, CNEP1R1 / Fold change vs veh, CNEP1R1 / RFU, BIVM-ERCC5 /// ERCC5 / Fold change vs veh, BIVM-ERCC5 /// ERCC5 / RFU, ILF3 / Fold change vs veh, ILF3 / RFU 11762660_at / Fold change /veh 11762660_at / RFU VCAN (11757783_s_at) / Fold change /veh VCAN (11757783_s_at) / RFU DDX43 (11728927_at) / Fold change /veh DDX43 (11728927_at) / RFU KRT8 (11758188_x_at) / Fold change /veh KRT8 (11758188_x_at) / RFU NKD1 (11759106_at) / Fold change /veh NKD1 (11759106_at) / RFU SRD5A1 (11742802_a_at) / Fold change /veh SRD5A1 (11742802_a_at) / RFU TPSAB1 /// TPSB2 (11721975_s_at) / Fold change /veh TPSAB1 /// TPSB2 (11721975_s_at) / RFU GSTM3 (11746129_a_at) / Fold change /veh GSTM3 (11746129_a_at) / RFU IL23R (11737362_x_at) / Fold change /veh IL23R (11737362_x_at) / RFU TMEM51 (11727254_a_at) / Fold change /veh TMEM51 (11727254_a_at) / RFU PIWIL2 (11732686_x_at) / Fold change /veh PIWIL2 (11732686_x_at) / RFU ORM1 (11744905_x_at) / Fold change /veh ORM1 (11744905_x_at) / RFU CCDC152 (11743942_at) / Fold change /veh CCDC152 (11743942_at) / RFU ECM1 (11717891_a_at) / Fold change /veh ECM1 (11717891_a_at) / RFU IL23R (11748794_a_at) / Fold change /veh IL23R (11748794_a_at) / RFU TNFAIP8L3 (11732012_x_at) / Fold change /veh TNFAIP8L3 (11732012_x_at) / RFU MBOAT4 (11741988_at) / Fold change /veh MBOAT4 (11741988_at) / RFU 11764193_at / Fold change /veh 11764193_at / RFU TMEM53 (11763286_at) / Fold change /veh TMEM53 (11763286_at) / RFU MAGEB2 (11727129_at) / Fold change /veh MAGEB2 (11727129_at) / RFU TMEM200A (11744735_a_at) / Fold change /veh TMEM200A (11744735_a_at) / RFU CCDC152 (11751479_a_at) / Fold change /veh CCDC152 (11751479_a_at) / RFU FAM211A (11726209_a_at) / Fold change /veh FAM211A (11726209_a_at) / RFU RGS16 (11746705_a_at) / Fold change /veh RGS16 (11746705_a_at) / RFU VCAN (11755009_s_at) / Fold change /veh VCAN (11755009_s_at) / RFU RHOB (11743442_s_at) / Fold change /veh RHOB (11743442_s_at) / RFU RGS16 (11720943_a_at) / Fold change /veh RGS16 (11720943_a_at) / RFU RGS16 (11720944_at) / Fold change /veh RGS16 (11720944_at) / RFU, VPS4B / Fold change vs veh, VPS4B / RFU, CREB1 / Fold change vs veh, CREB1 / RFU, DNAJC13 / Fold change vs veh, DNAJC13 / RFU, GNAQ / Fold change vs veh, GNAQ / RFU, CDK5R1 / Fold change vs veh, CDK5R1 / RFU, ZRANB3 / Fold change vs veh, ZRANB3 / RFU, CUL4A / Fold change vs veh, CUL4A / RFU, CCNY / Fold change vs veh, CCNY / RFU, UFL1 / Fold change vs veh, UFL1 / RFU, COG3 / Fold change vs veh, COG3 / RFU, DIAPH2 / Fold change vs veh, DIAPH2 / RFU, SKA2 / Fold change vs veh, SKA2 / RFU, AFF3 / Fold change vs veh, AFF3 / RFU, LMF1 / Fold change vs veh, LMF1 / RFU, IPO11 / Fold change vs veh, IPO11 / RFU, DFFB / Fold change vs veh, DFFB / RFU, FOXP1 / Fold change vs veh, FOXP1 / RFU, CARD8 / Fold change vs veh, CARD8 / RFU, STRN3 / Fold change vs veh, STRN3 / RFU, ADK / Fold change vs veh, ADK / RFU, RASSF2 / Fold change vs veh, RASSF2 / RFU, WIPF1 / Fold change vs veh, WIPF1 / RFU, LARP1B / Fold change vs veh, LARP1B / RFU, RASA1 / Fold change vs veh, RASA1 / RFU, RB1 / Fold change vs veh, RB1 / RFU, PPFIA1 / Fold change vs veh, PPFIA1 / RFU, MAT2A / Fold change vs veh, MAT2A / RFU, CCT5 / Fold change vs veh, CCT5 / RFU, WDR92 / Fold change vs veh, WDR92 / RFU, CUX1 / Fold change vs veh, CUX1 / RFU, TTC7A / Fold change vs veh, TTC7A / RFU, TMEM135 / Fold change vs veh, TMEM135 / RFU, DEPTOR / Fold change vs veh, DEPTOR / RFU, CPM / Fold change vs veh, CPM / RFU, DNAJB6 / Fold change vs veh, DNAJB6 / RFU, CACNA2D3 / Fold change vs veh, CACNA2D3 / RFU, DTX4 / Fold change vs veh, DTX4 / RFU, TFCP2 / Fold change vs veh, TFCP2 / RFU, GMCL1 /// GMCL1P1 / Fold change vs veh, GMCL1 /// GMCL1P1 / RFU, AEBP2 / Fold change vs veh, AEBP2 / RFU, SNHG1 /// SNORD22 /// SNORD25 /// SNORD26 /// SNORD27 /// SNORD28 /// SNORD29 /// SNORD31 / Fold change vs veh, SNHG1 /// SNORD22 /// SNORD25 /// SNORD26 /// SNORD27 /// SNORD28 /// SNORD29 /// SNORD31 / Fold change (Aza/veh), C12orf56 (ProbeSet 11735607_a_at) / Fold change (ACY-1035/veh), C12orf56 (ProbeSet 11735607_a_at) / Fold change (Aza/veh), FGFR1OP (ProbeSet 11751329_s_at) / Fold change (ACY-1035/veh), FGFR1OP (ProbeSet 11751329_s_at) / Fold change (Aza/veh), VPS36 (ProbeSet 11739960_a_at) / Fold change (ACY-1035/veh), VPS36 (ProbeSet 11739960_a_at) / RFU SYPL1 (11715823_x_at) / Fold change /veh SYPL1 (11715823_x_at) / RFU IGFBP7 (11715501_s_at) / Fold change /veh IGFBP7 (11715501_s_at) / RFU REEP3 (11722064_at) / Fold change /veh REEP3 (11722064_at) / RFU IGLL1 (11728026_x_at) / Fold change /veh IGLL1 (11728026_x_at): dose or concentration left out as unconfirmed
Conditions: MV-4-11 cells, 48 hours

`Nc1ccc(-c2cccs2)cc1NC(=O)c1ccc2c(c1)cc(C1CC1)n2CCN1CCOCC1` [ACY-1035] was tested, and the “Fold change /veh KRT8 (11758183_x_at)” value was 1.06.
